The source made the active and inactive calls.
How the values were obtained:
Format in all cases: functional, cell-based
T-24 = experiment: Cytotoxicity against human T24 cells assessed as reduction in cell viability at 50 uM incubated for 48 hrs by MTS assay
HepG2 = experiment: Cytotoxicity against human HepG2 cells assessed as reduction in cell viability at 50 uM incubated for 48 hrs by MTS assay
HOS = experiment: Cytotoxicity against human HOS cells assessed as reduction in cell viability at 50 uM incubated for 48 hrs by MTS assay
HeLa = experiment: Cytotoxicity against human HeLa cells assessed as reduction in cell viability at 50 uM incubated for 48 hrs by MTS assay
ACHN = experiment: Cytotoxicity against human ACHN cells assessed as reduction in cell viability at 50 uM incubated for 48 hrs by MTS assay
SH-SY5Y = experiment: Cytotoxicity against human SH-SY5Y cells assessed as reduction in cell viability at 50 uM incubated for 48 hrs by MTS assay
A549 = experiment: Cytotoxicity against human A549 cells assessed as reduction in cell viability at 50 uM incubated for 48 hrs by MTS assay

Measured: Activity

CC1=[N+]([O-])[C@](Cc2c[nH]c3ccccc23)([C@H](CC(=O)[C@H](C)O)C(=O)O[C@@H](C)CC[C@@H]2C=CC(=O)O2)NC1=O
inactive: T-24 | HepG2 | HOS | HeLa | ACHN | SH-SY5Y | A549

CC1=[N+]([O-])[C@](Cc2c[nH]c3ccccc23)([C@H]2CC(=O)[C@@H](C)OC(=O)/C=C/[C@@H](O)CC[C@@H](C)OC2=O)NC1=O
inactive: T-24 | HepG2 | HOS | HeLa | ACHN | SH-SY5Y | A549

— ChEMBL document CHEMBL4411290, “Rogersonins A and B, Imidazolone N-Oxide-Incorporating Indole Alkaloids from a verG Disruption Mutant of Clonostachys rogersoniana” (J Nat Prod, 2019)
